Measurements reported in the supplement of paper PMC11061612.

Legend:
Prexasertib = compound: COc1cccc(OCCCN)c1-c1cc(Nc2cnc(C#N)cn2)n[nH]1 [Prexasertib]; settings: max 1 µM
Outline: (§1)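 Viability was measured with CellTiter-Glo 2.0 luminescence after 72 hours of dosing at a final DMSO of typically 0.2%, and scaled between blank-well and DMSO-well means. Beforehand, cancer cell lines sat 24 hours at 37°C and 5% CO2 in 1536-well plates in 7.5 μl DMEM/F12 or RPMI with 10% FBS. A non-linear mixed effects model fitted two-parameter logistic curves to the dose responses. The single-agent IC50 comes from these fits.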

Savolitinib = compound: C[C@@H](c1ccc2nccn2c1)n1nnc2ncc(-c3cnn(C)c3)nc21 [Savolitinib]; settings: max 1 µM
Outline: as §1

Gefitinib = compound: COc1cc2ncnc(Nc3ccc(F)c(Cl)c3)c2cc1OCCCN1CCOCC1 [Gefitinib]; settings: max 10 µM
Outline: as §1

MK-2206 = compound: NC1(c2ccc(-c3nc4ccn5c(=O)[nH]nc5c4cc3-c3ccccc3)cc2)CCC1 [MK-2206]; settings: max 10 µM
Outline: as §1

AZD7648 = compound: Cc1cc2ncnn2cc1Nc1ncc2c(n1)n(C1CCOCC1)c(=O)n2C [AZD7648]; settings: max 10 µM
Outline: as §1

Dasatinib = compound: CC1=C(C(=CC=C1)Cl)NC(=O)C2=CN=C(S2)NC3=CC(=NC(=N3)C)N4CCN(CC4)CCO [Dasatinib]; settings: max 2 µM
Outline: as §1

AZD5153 = compound: COc1nnc2ccc(N3CCC(c4ccc(OCCN5CCN(C)C(=O)[C@H]5C)cc4)CC3)nn12 [AZD5153]; settings: max 1 µM
Outline: as §1

AZD8186 = compound: C[C@@H](Nc1cc(F)cc(F)c1)c1cc(C(=O)N(C)C)cc2c(=O)cc(N3CCOCC3)oc12 [AZD8186]; settings: max 10 µM
Outline: as §1

Olaparib = compound: O=C(c1cc(Cc2n[nH]c(=O)c3ccccc23)ccc1F)N1CCN(C(=O)C2CC2)CC1 [Olaparib]; settings: max 10 µM
Outline: as §1

AZD4320 = compound: CN(CC[C@H](CSC1=CC=CC=C1)NC2=C(C=C(C=C2)S(=O)(=O)NC(=O)C3=CC=C(C=C3)N4CCC(CC4)[C@H](C5=CC=CC=C5C6=CC=C(C=C6)Cl)O)S(=O)(=O)C(F)(F)F)CCO [AZD4320]; settings: max 1 µM
Outline: as §1

Palbociclib = compound: CC(=O)c1c(C)c2cnc(Nc3ccc(N4CCNCC4)cn3)nc2n(C2CCCC2)c1=O [Palbociclib]; settings: max 10 µM
Outline: as §1

AZD1390 = compound: CC(C)n1c(=O)n(C)c2cnc3cc(F)c(-c4ccc(OCCCN5CCCCC5)nc4)cc3c21 [AZD1390]; settings: max 0.3 µM
Outline: as §1

Carboplatin = compound: C1CC(C1)(C(=O)[O-])C(=O)[O-].N.N.[Pt+2] [Carboplatin]; settings: max 10 µM
Outline: as §1

Lapatinib = compound: CS(=O)(=O)CCNCc1ccc(-c2ccc3ncnc(Nc4ccc(OCc5cccc(F)c5)c(Cl)c4)c3c2)o1 [Lapatinib]; settings: max 10 µM
Outline: as §1

Gemcitabine = compound: Nc1ccn([C@@H]2O[C@H](CO)[C@@H](O)C2(F)F)c(=O)n1 [Gemcitabine]; settings: max 0.3 µM
Outline: as §1

Doxorubicin = compound: COc1cccc2c1C(=O)c1c(O)c3c(c(O)c1C2=O)C[C@@](O)(C(=O)CO)C[C@@H]3O[C@H]1C[C@H](N)[C@H](O)[C@H](C)O1 [Doxorubicin]; settings: max 1 µM
Outline: as §1

Paclitaxel = compound: CC(=O)O[C@H]1C(=O)[C@@]2(C)[C@H]([C@H](OC(=O)c3ccccc3)[C@]3(O)C[C@H](OC(=O)[C@H](O)[C@@H](NC(=O)c4ccccc4)c4ccccc4)C(C)=C1C3(C)C)[C@]1(OC(C)=O)CO[C@@H]1C[C@@H]2O [Paclitaxel]; settings: max 3 µM
Outline: as §1

Alisertib = compound: COc1cc(Nc2ncc3c(n2)-c2ccc(Cl)cc2C(c2c(F)cccc2OC)=NC3)ccc1C(=O)O [Alisertib]; settings: max 10 µM
Outline: as §1

AZD0156 = compound: CN(C)CCCOc1ccc(-c2ccc3ncc4c(c3c2)n(C2CCOCC2)c(=O)n4C)cn1 [AZD0156]; settings: max 3 µM
Outline: as §1

AZD5363 = compound: C1CN(CCC1(C(=O)N[C@@H](CCO)C2=CC=C(C=C2)Cl)N)C3=NC=NC4=C3C=CN4 [AZD5363]; settings: max 10 µM
Outline: as §1

5-Fluorouracil = compound: O=c1[nH]cc(F)c(=O)[nH]1 [5-Fluorouracil]; settings: max 20 µM
Outline: as §1

AZD6738 = compound: C[C@@H]1COCCN1C2=NC(=NC(=C2)C3(CC3)[S@](=N)(=O)C)C4=C5C=CNC5=NC=C4 [AZD6738]; settings: max 10 µM
Outline: as §1

Trametinib = compound: CC(=O)Nc1cccc(-n2c(=O)n(C3CC3)c(=O)c3c(Nc4ccc(I)cc4F)n(C)c(=O)c(C)c32)c1 [Trametinib]; settings: max 1 µM
Outline: as §1

Taselisib = compound: Cc1nc(-c2cn3c(n2)-c2ccc(-c4cnn(C(C)(C)C(N)=O)c4)cc2OCC3)n(C(C)C)n1 [Taselisib]; settings: max 10 µM
Outline: as §1

AZD1775 = compound: C=CCn1c(=O)c2cnc(Nc3ccc(N4CCN(C)CC4)cc3)nc2n1-c1cccc(C(C)(C)O)n1 [AZD1775]; settings: max 3 µM
Outline: as §1

SN-38 = compound: CCc1c2c(nc3ccc(O)cc13)-c1cc3c(c(=O)n1C2)COC(=O)[C@]3(O)CC [SN-38]; settings: max 0.3 µM
Outline: as §1

SRA737 = compound: N#Cc1cnc(Nc2cc(NC[C@H]3CNCCO3)c(C(F)(F)F)cn2)cn1 [SRA737]; settings: max 10 µM
Outline: as §1

Crizotinib = compound: C[C@@H](Oc1cc(-c2cnn(C3CCNCC3)c2)cnc1N)c1c(Cl)ccc(F)c1Cl [Crizotinib]; settings: max 10 µM
Outline: as §1

[1] = compound: O=C(Nc1ccc2[nH]nc(-c3ccncc3)c2c1)[C@@H]1CCN(CC(=O)N2CCN(c3ccc(-c4ncccn4)cc3)CC2)C1; settings: max 5 µM
Outline: as §1

Venetoclax = compound: CC1(C)CCC(CN2CCN(c3ccc(C(=O)NS(=O)(=O)c4ccc(NCC5CCOCC5)c([N+](=O)[O-])c4)c(Oc4cnc5[nH]ccc5c4)c3)CC2)=C(c2ccc(Cl)cc2)C1 [Venetoclax]; settings: max 1 µM
Outline: as §1

Selumetinib = compound: Cn1cnc2c(F)c(Nc3ccc(Br)cc3Cl)c(C(=O)NOCCO)cc21 [Selumetinib]; settings: max 10 µM
Outline: as §1

AZD2811 = compound: CCN(CCO)CCCOc1ccc2c(Nc3cc(CC(=O)Nc4cccc(F)c4)[nH]n3)ncnc2c1 [AZD2811]; settings: max 1 µM
Outline: as §1

SG3199 = compound: CC1=CN2[C@@H](C1)C=NC3=CC(=C(C=C3C2=O)OC)OCCCCCOC4=C(C=C5C(=C4)N=C[C@@H]6CC(=CN6C5=O)C)OC [SG3199]; settings: max 0.001 µM
Outline: as §1

AZD5991 = compound: Cc1c2c(nn1C)CSCc1cc(n(C)n1)CSc1cc(c3ccccc3c1)OCCCc1c(C(=O)O)n(C)c3c-2c(Cl)ccc13 [AZD5991]; settings: max 1 µM
Outline: as §1

Etoposide = compound: COc1cc([C@@H]2c3cc4c(cc3[C@@H](O[C@@H]3O[C@@H]5CO[C@@H](C)O[C@H]5[C@H](O)[C@H]3O)[C@H]3COC(=O)[C@H]23)OCO4)cc(OC)c1O [Etoposide]; settings: max 10 µM
Outline: as §1

Cell Line | IC50, cell viability 72 h (Prexasertib) [µM] | IC50, cell viability 72 h (Savolitinib) [µM] | IC50, cell viability 72 h (Gefitinib) [µM] | IC50, cell viability 72 h (MK-2206) [µM] | IC50, cell viability 72 h (AZD7648) [µM] | IC50, cell viability 72 h (Dasatinib) [µM] | IC50, cell viability 72 h (AZD5153) [µM] | IC50, cell viability 72 h (AZD8186) [µM] | IC50, cell viability 72 h (Olaparib) [µM] | IC50, cell viability 72 h (AZD4320) [µM] | IC50, cell viability 72 h (Palbociclib) [µM] | IC50, cell viability 72 h (AZD1390) [µM] | IC50, cell viability 72 h (Carboplatin) [µM] | IC50, cell viability 72 h (Lapatinib) [µM] | IC50, cell viability 72 h (Gemcitabine) [µM] | IC50, cell viability 72 h (Doxorubicin) [µM] | IC50, cell viability 72 h (Paclitaxel) [µM] | IC50, cell viability 72 h (Alisertib) [µM] | IC50, cell viability 72 h (AZD0156) [µM] | IC50, cell viability 72 h (AZD5363) [µM] | IC50, cell viability 72 h (5-Fluorouracil) [µM] | IC50, cell viability 72 h (AZD6738) [µM] | IC50, cell viability 72 h (Trametinib) [µM] | IC50, cell viability 72 h (Taselisib) [µM] | IC50, cell viability 72 h (AZD1775) [µM] | IC50, cell viability 72 h (SN-38) [µM] | IC50, cell viability 72 h (SRA737) [µM] | IC50, cell viability 72 h (Crizotinib) [µM] | IC50, cell viability 72 h [1] [µM] | IC50, cell viability 72 h (Venetoclax) [µM] | IC50, cell viability 72 h (Selumetinib) [µM] | IC50, cell viability 72 h (AZD2811) [µM] | IC50, cell viability 72 h (SG3199) [µM] | IC50, cell viability 72 h (AZD5991) [µM] | IC50, cell viability 72 h (Etoposide) [µM]
LCLC-103H (Non-Small Cell Lung Carcinoma) | 0.0881 | > 1 | > 10 | > 10 | > 10 | > 2 | > 1 | > 10 | > 10 | > 1 | > 10 | > 0.3 | > 10 | > 10 | > 0.3 | > 1 | 0.0178 | > 10 | > 3 | > 10 | > 20 | > 10 | > 1 | > 10 | 2.19 | > 0.3 | > 10 | > 10 | > 5 | > 1 | > 10 | > 1 | > 0.001 | > 1 | > 10
LS-1034 (Colorectal Carcinoma) | 0.238 | > 1 | > 10 | > 10 | > 10 | > 2 | 0.85 | > 10 | > 10 | > 1 | > 10 | > 0.3 | > 10 | > 10 | 0.12 | > 1 | 0.59 | > 10 | > 3 | > 10 | > 20 | 6.05 | 0.052 | > 10 | 0.918 | > 0.3 | > 10 | > 10 | > 5 | > 1 | 2.42 | > 1 | > 0.001 | > 1 | > 10
